From article PMC3199943, “Screening the MayBridge Rule of 3 Fragment Library for Compounds That Interact with the Trypanosoma brucei myo-Inositol-3-Phosphate Synthase and/or Show Trypanocidal Activity” (Molecular Biology International, 2011)
Where a name gives a salt, the structure may show the parent alone. Read-outs that look alike come from different tables or passages of the source.

Experiments:
[1] = system: A549 cells; test: Cytotoxicity against A549 cells, Alamar Blue; type: cell-based; settings: for viability at 500 µM: Homo sapiens, A549, 65 h
Protocol: (§1) Cytotoxic effects against HeLa and A549 cells were determined in a similar manner. Briefly, the cells were cultured in DMEM supplemented with 10% FCS and 2 mM L-Glutamine. Cells were plated at initial cell concentration of 2 × 10^4 cells/well and incubated with the compounds for ~65 hours prior to addition of Alamar Blue solution for a further 5 hours.

[2] = system: HeLa cells; test: cells; settings: for viability at 500 µM / CC50: Homo sapiens, HeLa; for viability at 500 µM: 65 h; for CC50: read-out: HeLa ED50
Protocol: as §1

[3] = Supplementary Table 1, compound 0.5 mM, percentage of controls (n=1)
[4] = read-out: HeLa Cells Alamar Blue
[5] = read-out: HeLa Cells Alamar Blue, Supplementary Table 1, compound 0.5 mM, percentage of controls, mean ± SD (n=3) or SE (n=2)
[6] = Supplementary Table 1, compound 0.5 mM, percentage of controls, mean ± SD (n=3) or SE (n=2)

N#CCCn1cccc1 [compound 50, 3‐(1H‐pyrrol‐1‐yl)propanenitrile]
viability at 500 µM [1, 3]: 140%
viability at 500 µM [2, 4]: 75.4 ± 6.4%

O=C1CCOc2ccc(F)cc21 [compound 318, 6‐fluorochroman‐4‐one]
viability at 500 µM [1, 3]: 99%
viability at 500 µM [2, 4]: 104 ± 16.4%

Nc1cccc(N)c1 [compound 461, benzene‐1,3‐diamine dihydrochloride]
viability at 500 µM [1, 3]: 91.8%
viability at 500 µM [2, 5]: 106 ± 10.7%

CCCc1ccc(NC(C)=O)cc1 [compound 426, N1‐(4‐propylphenyl)acetamide]
viability at 500 µM [1, 3]: 71.7%
viability at 500 µM [2, 4]: 89.8 ± 10.8%

CNCc1ccc(N2CCCCC2)cc1 [compound 657, N‐methyl‐N‐(4‐piperidin‐1‐ylbenzyl)amine]
viability at 500 µM [1, 3]: 77.4%
viability at 500 µM [2, 4]: 40.9 ± 12%

Nc1nsc(-c2ccccc2)n1 [compound 424, 5‐phenyl‐1,2,4‐thiadiazol‐3‐amine]
viability at 500 µM [1, 3]: 60.1%
viability at 500 µM [2, 4]: 62.2 ± 15.4%

N#Cc1ccccc1-n1cccc1 [compound 336, 2‐(1H‐pyrrol‐1‐yl)benzonitrile]
viability at 500 µM [1, 3]: 134%
viability at 500 µM [2, 4]: 68.5 ± 16.3%

c1ccc(-c2cn3c(n2)SCC3)cc1 [compound 639, 6‐phenyl‐2,3‐dihydroimidazo[2,1‐b][1,3]thiazole]
A549 Cells Alamar Blue [1, 3]: 109.1 percentage of controls
HeLa Cells Alamar Blue [2, 6]: 61 ± 9.8 percentage of controls

O=C1CCC2CC1CCC2=O [compound 206, bicyclo[3.3.1]nonane‐2,6‐dione]
viability at 500 µM [1, 3]: 42.1%
viability at 500 µM [2, 4]: 80.8 ± 7.6%

CCCCc1nc(CO)c[nH]1 [compound 223, (2‐butyl‐1H‐imidazol‐4‐yl)methanol]
viability at 500 µM [1, 3]: 139%
viability at 500 µM [2, 4]: 105 ± 13.7%

O=C(O)C1CC2CC1CCC2O (centres unmarked) [compound 345, 2‐hydroxybicyclo[3.2.1]octane‐6‐carboxylic acid]
A549 Cells Alamar Blue [1, 3]: 127 percentage of controls
HeLa Cells Alamar Blue [2, 6]: 87.4 ± 13 percentage of controls

COc1ccccc1CCC(=O)O [compound 452, 3‐(2‐methoxyphenyl)propanoic acid]
viability at 500 µM [1, 3]: 61.6%
viability at 500 µM [2, 4]: 97.3 ± 7.2%

Cc1cccc(N)c1N [compound 55, 3‐methylbenzene‐1,2‐diamine]
viability at 500 µM [1, 3]: 26.5%
viability at 500 µM [2, 4]: 11.2 ± 7.2%

N#Cc1ccc(-c2ccco2)nc1 [compound 344, 6‐(2‐furyl)nicotinonitrile]
viability at 500 µM [1, 3]: 104%
viability at 500 µM [2, 4]: 48.9 ± 5%

COC(=O)c1ccccc1C#N [compound 274, methyl 2‐cyanobenzoate]
viability at 500 µM [1, 3]: 64%
viability at 500 µM [2, 4]: 91 ± 19.6%

OCC1COc2ccccc2O1 (centres unmarked) [compound 319, 2,3‐dihydro‐1,4‐benzodioxin‐2‐ylmethanol]
A549 Cells Alamar Blue [1, 3]: 86.4 percentage of controls
HeLa Cells Alamar Blue [2, 6]: 102.6 ± 5.1 percentage of controls

Cc1ccc(-c2cnco2)cc1 [compound 259, 5‐(4‐methylphenyl)‐1,3‐oxazole]
viability at 500 µM [1, 3]: 88.1%
viability at 500 µM [2, 4]: 88.4 ± 2.5%

Oc1ccc(SC(F)(F)F)cc1 [compound 584, 4‐[(trifluoromethyl)thio]phenol]
viability at 500 µM [1, 3]: 68.4%
viability at 500 µM [2, 4]: 97.5 ± 15.9%

OC12CC3CC(CC(C3)C1)C2 [compound 209, adamantan‐1‐ol]
viability at 500 µM [1, 3]: 76.1%
viability at 500 µM [2, 4]: 92.2 ± 6.7%

N#Cc1ccsc1N [compound 68, 2‐aminothiophene‐3‐carbonitrile]
viability at 500 µM [1, 3]: 136%
viability at 500 µM [2, 4]: 102 ± 3.1%

Oc1ccc(-n2ccnc2)cc1 [compound 266, 4‐(1H‐imidazol‐1‐yl)phenol]
viability at 500 µM [1, 3]: 108%
viability at 500 µM [2, 4]: 83 ± 19.8%

OC1CCSCC1 [compound 47, tetrahydro‐2H‐thiopyran‐4‐ol]
viability at 500 µM [1, 3]: 74.9%
viability at 500 µM [2, 4]: 95 ± 10%

N#Cc1ccc(-c2ccccc2)nc1 [compound 456, 6‐phenylnicotinonitrile]
viability at 500 µM [1, 3]: 67.1%
viability at 500 µM [2, 4]: 33.9 ± 6.9%

COC(=O)C1NCCS1 (centres unmarked) [compound 44, methyl 1,3-thiazolane-2-carboxylate hydrochloride]
viability at 500 µM [1, 3]: 87%

NS(=O)(=O)c1ccc(F)cc1F [compound 576, 2,4‐difluorobenzenesulfonamide]
viability at 500 µM [1, 3]: 12.9%
viability at 500 µM [2, 4]: 10.7 ± 9.3%

NC1CCN(Cc2ccccc2)CC1 [compound 548, 1‐benzylpiperidin‐4‐amine]
viability at 500 µM [1, 3]: 89.3%
viability at 500 µM [2, 4]: 39.5 ± 10%

O=C(O)c1cccs1 [compound 85, thiophene‐2‐carboxylic acid]
viability at 500 µM [1, 3]: 119%
viability at 500 µM [2, 4]: 100 ± 7.4%

OCCc1cccnc1 [compound 63, 2‐(3‐pyridyl)ethan‐1‐ol]
viability at 500 µM [1, 3]: 76.9%
viability at 500 µM [2, 4]: 105 ± 13.1%

O=C(O)C1CCCNC1 (centres unmarked) [compound 91, 3-piperidinecarboxylic acid]
viability at 500 µM [1, 3]: 103%
viability at 500 µM ([2]; read-out: HeLa Cells Alamar Blue (% survival), compound 0.5 mM, percentage of controls): 76.6 ± 29.1%
viability at 500 µM [2, 5]: 76.6 ± 29.1%

Nc1ccc(N2CCCCC2)cc1 [compound 413, 4‐piperidinoaniline]
viability at 500 µM [1, 3]: 53.2%
viability at 500 µM [2, 4]: 11.6 ± 5.1%

O=C(O)C1CCOCC1 [compound 92, tetrahydro‐2H‐pyran‐4‐carboxylic acid]
viability at 500 µM [1, 3]: 118%
viability at 500 µM [2, 4]: 78.4 ± 15.8%

Cc1ccccc1NC(N)=S [compound 326, N‐(2‐methylphenyl)thiourea]
viability at 500 µM [1, 3]: 125%
viability at 500 µM [2, 5]: 111 ± 8.5%

OCc1ccc(-c2ccsc2)cc1 [compound 545, (4‐thien‐3‐ylphenyl)methanol]
viability at 500 µM [1, 3]: 87.2%
viability at 500 µM [2, 4]: 84.3 ± 13.2%

O=C(O)c1cccc2c1OCC2 [compound 297, 2,3‐dihydrobenzo[b]furan‐7‐carboxylic acid]
A549 Cells Alamar Blue [1, 3]: 74.9 percentage of controls
HeLa Cells Alamar Blue [2, 6]: 78.8 ± 7.5 percentage of controls

Cl.Cl.NCCc1c[nH]cn1 [compound 475, 2‐(1H‐imidazol‐4‐yl)ethylamine dihydrochloride]
A549 Cells Alamar Blue [1]: 80.3
HeLa Cells Alamar Blue [2]: 95.9 ± 6.6

NCc1cc(Cl)cc(Cl)c1 [compound 405, 3,5‐dichlorobenzylamine]
viability at 500 µM [1, 3]: 84.1%
viability at 500 µM [2, 4]: 77.7 ± 13.9%

OCc1nccn1Cc1ccccc1 [compound 526, (1‐benzyl‐1H‐imidazol‐2‐yl)methanol]
viability at 500 µM [1, 3]: 58%
viability at 500 µM [2, 4]: 81 ± 13.3%

Cc1nc(-c2ccccc2)ncc1CO [compound 623, (4‐methyl‐2‐phenyl‐5‐pyrimidinyl)methanol]
A549 Cells Alamar Blue [1, 3]: 85.4 percentage of controls
HeLa Cells Alamar Blue [2, 6]: 66.5 ± 11.6 percentage of controls

CN(C(N)=S)c1ccccc1 [compound 325, N‐methyl‐N‐phenylthiourea]
viability at 500 µM [1, 3]: 82.7%
viability at 500 µM [2, 4]: 33.9 ± 11.6%
CC50 [2]: 415 ± 24 µM

O=C(O)c1ccc(-c2ccccc2)s1 [compound 649, 5‐phenylthiophene‐2‐carboxylic acid]
viability at 500 µM [1, 3]: 141%
viability at 500 µM [2, 4]: 122 ± 18.7%

NCc1ccc(F)c(Cl)c1 [compound 264, 3‐chloro‐4‐fluorobenzylamine]
viability at 500 µM [1, 3]: 88.4%
viability at 500 µM [2, 4]: 47.5 ± 13.5%

O=C(O)c1ccc(-c2cccnc2)cc1 [compound 612, 4‐pyrid‐3‐ylbenzoic acid]
viability at 500 µM [1, 3]: 74.2%
viability at 500 µM [2, 5]: 77.2 ± 5.7%

Cn1nc(CO)cc1-c1cccs1 [compound 586, (1‐methyl‐5‐thien‐2‐yl‐1H‐pyrazol‐3‐yl)methanol]
A549 Cells Alamar Blue [1, 3]: 63.4 percentage of controls
HeLa Cells Alamar Blue [2, 6]: 82 ± 15.2 percentage of controls

OCc1scc2c1OCCO2 [compound 361, 2,3‐dihydrothieno[3,4‐b][1,4]dioxin‐5‐ylmethanol]
A549 Cells Alamar Blue [1, 3]: 93.7 percentage of controls
HeLa Cells Alamar Blue [2, 6]: 68.5 ± 12.9 percentage of controls

NCc1ccc2c(c1)OCCO2 [compound 306, 2,3‐dihydro‐1,4‐benzodioxin‐6‐ylmethylamine]
A549 Cells Alamar Blue [1, 3]: 72.7 percentage of controls
HeLa Cells Alamar Blue [2, 6]: 109.2 ± 5.6 percentage of controls

Cn1c(C(=O)O)cc2sccc21 [compound 464, 4‐methyl‐4H‐thieno[3,2‐b]pyrrole‐5‐carboxylic acid]
A549 Cells Alamar Blue [1, 3]: 89.4 percentage of controls
HeLa Cells Alamar Blue [2, 6]: 93.5 ± 4.2 percentage of controls

NC(=O)Cc1ccc(O)cc1 [compound 192, 2‐(4‐hydroxyphenyl)acetamide]
viability at 500 µM [1, 3]: 44.6%
viability at 500 µM [2, 4]: 96.9 ± 9.5%

CNCc1cccc(N2CCCCC2)c1 [compound 656, N‐methyl‐N‐(3‐piperidin‐1‐ylbenzyl)amine]
viability at 500 µM [1, 3]: 104%
viability at 500 µM [2, 4]: 27.4 ± 13.3%

Cn1cccc1C(=O)O [compound 69, 1‐methyl‐1H‐pyrrole‐2‐carboxylic acid]
viability at 500 µM [1, 3]: 70.2%
viability at 500 µM [2, 4]: 95.3 ± 2.5%

CSc1ccccc1CN [compound 217, 2‐(methylthio)benzylamine]
viability at 500 µM [1, 3]: 70.3%
viability at 500 µM [2, 4]: 27.1 ± 0.5%

NC(=O)Cc1ccc(F)cc1Cl [compound 519, 2‐(2‐chloro‐4‐fluorophenyl)acetamide]
viability at 500 µM [1, 3]: 102%
viability at 500 µM [2, 4]: 98.3 ± 15.4%

COc1ccccc1C1CCNCC1 [compound 560, 4‐(2‐methoxyphenyl)piperidine]
viability at 500 µM [1, 3]: 63.7%
viability at 500 µM [2, 4]: 20.2 ± 2.8%

Nc1ccccc1O [269e, 2-amino-phenol]
CC50 [2]: 68.2 ± 3.2 µM

Nc1ccc(C(F)(F)F)cc1 [compound 270, 4‐(trifluoromethyl)aniline]
viability at 500 µM [1, 3]: 104%
viability at 500 µM [2, 4]: 21.8 ± 14.5%
CC50 [2]: 206 ± 13 µM

Nc1ccc(Cl)c(F)c1 [269b]
CC50 [2]: 1400 ± 100 µM

Fc1cc2nc[nH]c2cc1Cl [269d]
CC50 [2]: 520 ± 52 µM

Nc1ccc(Cl)cc1N [269c]
CC50 [2]: 224 ± 35 µM

Nc1ccccc1N [269a, benzene-1,2-diamine]
CC50 [2]: 32.9 ± 2.5 µM
